Data on 8 compounds can be found in ChEMBL document CHEMBL3751752, “Total synthesis of a biotinylated rocaglate: Selective targeting of the translation factors eIF4AI/II” (Bioorg Med Chem Lett, 2016).

The structures appear in SMILES notation. Calls of active or inactive are those of the source. The rule behind the calls is not given here.

For experiment [1], the target named is Eukaryotic initiation factor 4A-II (Mus musculus) (UniProt P10630). Briefly: Binding affinity to eIF4A2 in mouse embryonic fibroblasts at 20 uM by streptavidin pulldown assay.
Eukaryotic initiation factor 4A-II (Mus musculus), sequence (P10630 whole entry): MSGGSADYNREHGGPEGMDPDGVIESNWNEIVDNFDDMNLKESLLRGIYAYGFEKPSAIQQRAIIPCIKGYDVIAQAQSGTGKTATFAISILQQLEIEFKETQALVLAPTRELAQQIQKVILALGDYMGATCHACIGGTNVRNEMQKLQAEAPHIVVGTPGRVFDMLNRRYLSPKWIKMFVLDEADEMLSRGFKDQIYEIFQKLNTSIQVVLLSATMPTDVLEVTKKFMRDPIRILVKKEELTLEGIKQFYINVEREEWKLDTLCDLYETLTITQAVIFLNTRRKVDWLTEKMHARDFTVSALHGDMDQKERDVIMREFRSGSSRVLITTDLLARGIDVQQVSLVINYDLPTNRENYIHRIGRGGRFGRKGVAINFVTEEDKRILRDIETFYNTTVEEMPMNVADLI
Experiment [2] has as its target Eukaryotic initiation factor 4A-I (Mus musculus) (UniProt P60843). Briefly: Binding affinity to eIF4A1 in mouse embryonic fibroblasts at 20 uM by streptavidin pulldown assay.
Experiment [3] has as its target Eukaryotic initiation factor 4A-I (Homo sapiens) (UniProt P60842). Put plainly: Inhibition of e1F4A1 (unknown origin) in rabbit reticulocyte assessed as capped-dependent translation incubated for 1 hr by dual glo luciferase assay.
Experiment [4] addresses Eukaryotic initiation factor 4A-II (Mus musculus) (UniProt P10630). Briefly: Binding affinity to eIF4A2 in mouse embryonic fibroblasts by Western blot method.
Experiment [5] concerns the target T1, Prohibitin 1 (Mus musculus) (UniProt P67778).
T1 sequence (whole entry): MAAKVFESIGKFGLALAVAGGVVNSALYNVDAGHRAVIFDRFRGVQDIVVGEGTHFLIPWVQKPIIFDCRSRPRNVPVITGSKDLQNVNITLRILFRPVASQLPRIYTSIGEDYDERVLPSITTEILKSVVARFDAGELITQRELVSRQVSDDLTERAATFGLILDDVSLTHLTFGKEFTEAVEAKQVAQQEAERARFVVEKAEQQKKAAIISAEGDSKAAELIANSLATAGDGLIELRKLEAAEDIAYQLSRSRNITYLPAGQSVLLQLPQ
Briefly: Binding affinity to prohibitin in mouse embryonic fibroblasts by Western blot method.

Experiment [6] concerns the target Eukaryotic initiation factor 4A-III (Mus musculus) (UniProt Q91VC3). Put plainly: Binding affinity to eIF4A3 in mouse embryonic fibroblasts by Western blot method.
Experiment [7] has as its target Eukaryotic translation initiation factor 4E (Mus musculus) (UniProt P63073). Briefly: Binding affinity to eIF4E in mouse embryonic fibroblasts by Western blot method. In general terms: Immunoblotting shows a protein as a band on a membrane.
Experiment [8] concerns the target Eukaryotic initiation factor 4A-I (Mus musculus) (UniProt P60843). Put plainly: Binding affinity to eIF4A1 in mouse embryonic fibroblasts by Western blot method.
In experiment [9] the target is ATP-dependent RNA helicase DDX3X (Mus musculus) (UniProt Q62167). Put plainly: Binding affinity to DDX3 in mouse embryonic fibroblasts by Western blot method.
ATP-dependent RNA helicase DDX3X (Mus musculus), sequence (Q62167 whole entry): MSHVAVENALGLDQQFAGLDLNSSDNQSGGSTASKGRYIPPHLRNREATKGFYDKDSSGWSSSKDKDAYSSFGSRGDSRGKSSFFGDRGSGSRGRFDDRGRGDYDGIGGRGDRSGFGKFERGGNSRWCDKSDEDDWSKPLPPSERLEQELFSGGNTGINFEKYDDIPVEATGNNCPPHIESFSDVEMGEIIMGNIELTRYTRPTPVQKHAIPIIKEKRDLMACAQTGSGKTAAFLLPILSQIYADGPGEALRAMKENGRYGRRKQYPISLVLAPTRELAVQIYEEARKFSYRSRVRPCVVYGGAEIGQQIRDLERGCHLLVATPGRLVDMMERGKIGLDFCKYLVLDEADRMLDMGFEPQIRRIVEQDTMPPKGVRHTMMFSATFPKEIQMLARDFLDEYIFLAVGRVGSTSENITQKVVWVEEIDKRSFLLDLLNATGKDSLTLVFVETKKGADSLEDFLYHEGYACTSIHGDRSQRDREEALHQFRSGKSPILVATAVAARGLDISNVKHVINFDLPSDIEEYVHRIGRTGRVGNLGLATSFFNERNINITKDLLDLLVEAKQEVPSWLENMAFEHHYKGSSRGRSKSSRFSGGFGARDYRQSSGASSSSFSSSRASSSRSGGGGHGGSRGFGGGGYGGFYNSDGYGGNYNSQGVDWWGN

Eukaryotic initiation factor 4A-I (Homo sapiens), sequence (P60842 whole entry): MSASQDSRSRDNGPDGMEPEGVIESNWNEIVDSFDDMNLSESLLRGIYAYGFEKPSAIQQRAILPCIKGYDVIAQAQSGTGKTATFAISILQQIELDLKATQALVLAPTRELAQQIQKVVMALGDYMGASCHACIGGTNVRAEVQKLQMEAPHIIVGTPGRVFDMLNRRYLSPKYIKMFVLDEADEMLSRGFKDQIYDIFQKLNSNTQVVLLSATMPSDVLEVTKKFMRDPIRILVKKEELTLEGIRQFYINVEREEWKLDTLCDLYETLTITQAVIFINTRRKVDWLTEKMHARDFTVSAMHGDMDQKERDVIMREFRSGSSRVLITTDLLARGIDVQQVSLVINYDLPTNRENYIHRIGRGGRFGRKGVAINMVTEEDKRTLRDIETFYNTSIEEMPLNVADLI
Eukaryotic initiation factor 4A-I (Mus musculus), sequence (P60843 whole entry): as the sequence (P60842 whole entry) above
Eukaryotic initiation factor 4A-III (Mus musculus), sequence (Q91VC3 whole entry): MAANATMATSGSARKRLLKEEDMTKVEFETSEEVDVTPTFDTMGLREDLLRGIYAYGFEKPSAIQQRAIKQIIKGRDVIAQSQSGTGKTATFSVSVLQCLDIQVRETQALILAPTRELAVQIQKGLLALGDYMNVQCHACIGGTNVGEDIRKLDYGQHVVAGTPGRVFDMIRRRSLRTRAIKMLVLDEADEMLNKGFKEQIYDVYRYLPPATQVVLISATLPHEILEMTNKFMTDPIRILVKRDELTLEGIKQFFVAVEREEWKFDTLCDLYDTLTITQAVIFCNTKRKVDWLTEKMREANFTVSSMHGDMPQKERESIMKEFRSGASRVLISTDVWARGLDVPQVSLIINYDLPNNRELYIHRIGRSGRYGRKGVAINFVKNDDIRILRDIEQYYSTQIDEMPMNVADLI
Eukaryotic translation initiation factor 4E (Mus musculus), sequence (P63073 whole entry): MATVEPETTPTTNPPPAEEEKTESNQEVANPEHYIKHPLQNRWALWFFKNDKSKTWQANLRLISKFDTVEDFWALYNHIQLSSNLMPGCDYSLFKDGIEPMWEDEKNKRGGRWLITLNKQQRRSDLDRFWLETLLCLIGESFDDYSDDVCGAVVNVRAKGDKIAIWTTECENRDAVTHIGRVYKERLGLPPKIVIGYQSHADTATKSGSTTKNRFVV

As to `O=C(O)CCCC[C@@H]1SC[C@@H]2NC(=O)N[C@@H]21`, the result in [1] and in experiment [2] was inactive.

As to `COc1ccc([C@@]23Oc4cc(OC)cc(OC)c4[C@]2(O)[C@H](O)[C@H](C(=O)O)[C@H]3c2ccccc2)cc1`, the inhibition result in experiment [3] was “Active”.

With `COc1ccc([C@@]23Oc4cc(OC)cc(OC)c4[C@]2(O)[C@H](O)[C@H](C(=O)N(C)C)[C@H]3c2ccccc2)cc1`, the result in experiment [1] and in experiment [2] was Active.

Turning to `COc1ccc([C@@]23Oc4cc(OC)cc(OC)c4[C@]2(O)[C@H](O)[C@H](C(=O)NCc2cn(CCCOCCOCCOCCCNC(=O)CCCC[C@@H]4SC[C@@H]5NC(=O)N[C@@H]54)nn2)[C@H]3c2ccccc2)cc1`, the outcome in experiment [1], in experiment [4], in experiment [2] and in [8] was Active. Also, the outcome in [5], in [6], in experiment [7] and in experiment [9] was inactive. The inhibition result in experiment [3] was “Active”.

As for `COC(=O)[C@H]1[C@@H](O)[C@@]2(O)c3c(OC)cc(OC)cc3O[C@@]2(c2ccc(OC)cc2)[C@@H]1c1ccccc1`, the result in [1] and in experiment [2] was Active. The inhibition result in [3] was “Active”.

For the compound `COC(=O)[C@H]1[C@@H](O)[C@@]2(O)c3c(OC)cc(O[C@@H]4O[C@@H]([C@@H](O)CO)CO[C@H]4OC)cc3O[C@@]2(c2ccc(OC)cc2)[C@@H]1c1ccccc1`, the outcome in experiment [1] and in experiment [2] was Active. In experiment [3], the inhibition result was “Active”.

For the compound `C#CCNC(=O)[C@H]1[C@@H](O)[C@@]2(O)c3c(OC)cc(OC)cc3O[C@@]2(c2ccc(OC)cc2)[C@@H]1c1ccccc1`, the inhibition entry in experiment [3] was “Active”.

Take `COc1ccc([C@@]23Oc4cc(O[C@@H]5O[C@@H]([C@@H](O)CO)CO[C@H]5OC)cc(OC)c4[C@]2(O)[C@H](O)[C@H](C(=O)NCc2cn(CCCOCCOCCOCCCNC(=O)CCCC[C@@H]4SC[C@@H]5NC(=O)N[C@@H]54)nn2)[C@H]3c2ccccc2)cc1`: the result in [1], in experiment [4], in [2] and in experiment [8] was Active. In addition, the result in experiment [5], in experiment [6], in [7] and in experiment [9] was inactive.
